From PMC11769294, “(E)-1-(3-(3-Hydroxy-4-Methoxyphenyl)-1-(3,4,5-Trimethoxyphenyl)allyl)-1H-1,2,4-Triazole and Related Compounds: Their Synthesis and Biological Evaluation as Novel Antimitotic Agents Targeting Breast Cancer” (Pharmaceuticals, 2025)

Columns and labels:
Format in all cases: cell-based, human
[1] = tested on: MCF-7 breast cancer cells; assay: Annexin V/PI apoptotic assay
Method: (§1) Apoptotic cell death was monitored by flow cytometry using Annexin V and propidium iodide (PI) to determine the Annexin V and PI negative cells (Q4, healthy cells), Annexin V positive and PI negative cells (Q3, early apoptosis), Annexin V and PI positive cells (Q2, late apoptosis), and Annexin V negative and PI-positive cells (Q1, necrosis) cells. MCF-7 and MDA-MB-231 cells for this experiment were seeded in 6-well plates at a density of 1 × 10^5 cells/mL (3 mL). Following the protocol previously described, the cells were treated at 37 °C with either vehicle (0.1% (v/v) EtOH), phenstatin 19c, (0.1 μM and 0.5 μM), or 22b (0.1 μM, 0.5 μM and 1 μM) at the 48 h time point. Cells were harvested by centrifugation at 400× g using a temperature-controlled Sorvall centrifuge and then prepared for flow cytometric analysis. Cells were washed in Annexin V Binding Buffer 1X (binding buffer: 0.1 M 4-(2-hydroxyethyl)-1-piperazineethanesulfonic acid (HEPES), pH 7.4; 1.4 M NaCl; 25 mM CaCl2 diluted in dH2O, 0.5 mL), and incubated in the dark for 30 min on ice in Annexin V-containing binding buffer (1:100), 50 μL protected from light. Cells were then washed once in binding buffer and then re-suspended in a PI-containing binding buffer (1:1,000) (0.5 μg/mL, 500 μL) and immediately analyzed within 1 h to determine the populations produced. BD Accuri flow cytometer (BD Biosciences, 2350 Qume Dr, San Jose, CA, USA) and GraphPad Prism software were used for the analysis of the data (GraphPad Software, Inc., 2365 Northside Dr., Suite 560, San Diego, CA, USA).
(§2) Figure 11 Compound 22b induced apoptosis in (A) MCF-7 breast cancer cells and (B) MDA-MB-231 breast cancer cells. MCF-7 breast cancer cells (A) and MDA-MB-23 breast cancer cells (B) were treated with 22b (0.1, 0.5, and 1.0 μM) or phenstatin (19c) (0.1 μM and 0.5 μM) or control vehicle (0.1% ethanol (v/v)). The data shown for the control vehicle and phenstatin are as we previously reported. The apoptotic cell content was determined by staining with Annexin V-FITC and PI. […]

[2] = tested on: MDA-MB-231 breast cancer cells; assay: Annexin V/PI apoptotic assay
Method: as §1, §2

[3] = tested on: MCF-7 cells; assay: Cell cycle analysis (PI, flow cytometry); settings: 1 μM
Method: Figure 10 Compound (A) 22b, (B) phenstatin 19c induced apoptosis in a time-dependent manner in MCF-7 cells. Cells were treated with either vehicle control [0.1% ethanol (v/v)] or compound 22b or phenstatin 19c (1 μM) for 24, 48, and 72 h). The data shown for the control vehicle and phenstatin are as we previously reported. Cells were fixed and stained with PI, followed by analysis using flow cytometry. Cell cycle analysis was performed on histograms of gated counts per DNA area (FL2-A). The number of cells with <2 N (sub-G1), 2 N (G0G1), and 4 N (G2/M) DNA content was determined with CellQuest software, BD CellQuest Pro. Values are represented as the mean ± SEM for three separate experiments. Two-way ANOVA (Bonferroni post-test) was used to test for statistical significance (*, p < 0.05; **, p < 0.01; ***, p < 0.001).
Cells (MCF-7 and MDA-MD 231) were seeded at a density of 1 × 10^5 cells/well in 6-well plates (volume of 3 mL per well) and treated with selected compound 22b and phenstatin (19c) (1 μM), as previously reported. The time points used were 24, 48, or 72 h. Ethanol was used as the vehicle. At each time point, the media was removed and then the well was carefully rinsed with PBS and TrypLE™ Express enzyme (200 µL) was added to detach the adherent cells. The cells were collected by trypsinization and were then centrifuged at 800× g for 15 min. Cells were washed with ice-cold phosphate-buffered saline (PBS) ×2 and fixed in ice-cold 70% ethanol for 14 h at −20 °C. Fixed cells were centrifuged at 800× g for 15 min. The samples were then treated with 12.5 µL of DNase-free RNAse A (10 mg/mL) together with […] of PI (1 mg/mL) at 37 °C for 30 min, vortexed, and wrapped in tin foil. The DNA content of cells (10,000 cells/selected experimental group) was determined by flow cytometry at 488 nm with a FACSCalibur flow cytometer (BD Biosciences, San Jose, CA, USA) using the CellQuest Software (Becton-Dickinson, East Rutherford, NJ, USA). Each experiment was performed on three separate occasions.

SMILES: COc1ccc(/C=C/C(c2cc(OC)c(OC)c(OC)c2)n2cncn2)cc1O (centres unmarked) [Compound 22b, (E)-5-(3-(1H-1,2,4-Triazol-1-yl)-3-(3,4,5-trimethoxyphenyl)prop-1-en-1-yl)-2-methoxyphenol]
- cells undergoing apoptosis (early + late) ([1]; 0.5 μM): 21%
- cells undergoing apoptosis (early + late) ([1]; 1 μM): 33%
- viability at 0.1 µM ([1]; Homo sapiens, MCF7, 0.1 μM, Figure 11A): 82.8%
- viability at 0.5 µM ([1]; Homo sapiens, MCF7, 0.5 μM, Figure 11A): 78.1%
- viability at 1 µM ([1]; Homo sapiens, MCF7, 1 μM, Figure 11A): 60.6%
- cells in apoptosis ([2]; 0.1 μM): 5.9%
- cells in apoptosis ([2]; 0.5 μM): 6.5%
- cells in apoptosis ([2]; 1.0 μM): 20.8%
- viability at 0.1 µM ([2]; Homo sapiens, 0.1 μM, Figure 11B): 92.8%
- viability at 0.5 µM ([2]; Homo sapiens, 0.5 μM, Figure 11B): 92.1%
- viability at 1 µM ([2]; Homo sapiens, 1 μM, Figure 11B): 77.6%
- cells in G2/M phase ([3]; 24 h): 35%
- cells in apoptosis (sub-G1) ([3]; 24 h): 14%
- cells in G2/M phase ([3]; 48 h): 26%
- cells in apoptosis (sub-G1) ([3]; 48 h): 23%
- cells in G2/M phase ([3]; 72 h): 23%
- cells in apoptosis (sub-G1) ([3]; 72 h): 31%
